This note sets out measurements from patent publication US12448394B2, “Heterocyclic pyrazole derivatives as type III receptor tyrosine kinase inhibitors” (DEVELOPMENT CENTER FOR BIOTECHNOLOGY, priority 2019, dated 2025).

For assay [1], the system named is A375 melanoma cell with BRAF V600E mutation. In words: A375 cell proliferation assay (counter screen). Particulars: Homo sapiens, A-375, A375 cells, 72 hours treatment, CellTiter96, read-out: anti-proliferation activity A375 BRAF V600E, IC50 ranking. The class given is cell-based, human. Here is the method: (§1) Inhibitions of cell growths by compounds were measured using CellTiter™-96 assay. The cytotoxicities of compounds of the invention were evaluated in cell line panels with different signaling pathway dependencies, including MV4-11 human acute myeloid leukemia cell with FLT3-ITD mutation, Molm-14 human acute myeloid leukemia cell with FLT3-ITD mutation, THP-1 human acute monocytic leukemia cell with NRAS G12D mutation, A375 melanoma cell with BRAF V600E mutation, and HCC827 NSCLC cell with EGFR exon 19 deletion mutation.
A375 cells are melanoma cells encoding BRFA V600E mutation, which renders the cell growth dependent on BRAF signaling instead of class III RTKs signaling. A375 cells (catalog #CRL-1619) were obtained from the ATCC. Briefly, cells were cultured in DMEM containing 10% FBS and incubated at 37° C. in 5% CO2 atmosphere. Cells were allowed to expand until reaching saturation, at which point they were sub-cultured or harvested for assay use.
(§2) MV4-11, Molm-14, THP-1, A375, and HCC827 cells were seeded into 96-well plates at 6500, 25000, 5000, 2000 and 8000 cells/well, respectively, and incubated at 37° C., 5% CO2 overnight. Then, these seeded cells were treated with increasing concentrations of the test compounds and incubated for another 72 hours. At the end of the incubation, CellTiter96® AQueous One Solution Reagent (Promega, […]) was added and incubated for the additional 2˜4 hours. Cell viability was determined by measuring absorbance at 490 nm using EMax® microplate reader (Molecular Devices, San Jose, CA, USA).
A general note: Counterscreens check selectivity or assay interference.

A further assay has as its target T1, FLT3 kinase (Homo sapiens, UniProt P36888).
T1 construct: purchased SignalChem
T1 sequence (P36888 27-993): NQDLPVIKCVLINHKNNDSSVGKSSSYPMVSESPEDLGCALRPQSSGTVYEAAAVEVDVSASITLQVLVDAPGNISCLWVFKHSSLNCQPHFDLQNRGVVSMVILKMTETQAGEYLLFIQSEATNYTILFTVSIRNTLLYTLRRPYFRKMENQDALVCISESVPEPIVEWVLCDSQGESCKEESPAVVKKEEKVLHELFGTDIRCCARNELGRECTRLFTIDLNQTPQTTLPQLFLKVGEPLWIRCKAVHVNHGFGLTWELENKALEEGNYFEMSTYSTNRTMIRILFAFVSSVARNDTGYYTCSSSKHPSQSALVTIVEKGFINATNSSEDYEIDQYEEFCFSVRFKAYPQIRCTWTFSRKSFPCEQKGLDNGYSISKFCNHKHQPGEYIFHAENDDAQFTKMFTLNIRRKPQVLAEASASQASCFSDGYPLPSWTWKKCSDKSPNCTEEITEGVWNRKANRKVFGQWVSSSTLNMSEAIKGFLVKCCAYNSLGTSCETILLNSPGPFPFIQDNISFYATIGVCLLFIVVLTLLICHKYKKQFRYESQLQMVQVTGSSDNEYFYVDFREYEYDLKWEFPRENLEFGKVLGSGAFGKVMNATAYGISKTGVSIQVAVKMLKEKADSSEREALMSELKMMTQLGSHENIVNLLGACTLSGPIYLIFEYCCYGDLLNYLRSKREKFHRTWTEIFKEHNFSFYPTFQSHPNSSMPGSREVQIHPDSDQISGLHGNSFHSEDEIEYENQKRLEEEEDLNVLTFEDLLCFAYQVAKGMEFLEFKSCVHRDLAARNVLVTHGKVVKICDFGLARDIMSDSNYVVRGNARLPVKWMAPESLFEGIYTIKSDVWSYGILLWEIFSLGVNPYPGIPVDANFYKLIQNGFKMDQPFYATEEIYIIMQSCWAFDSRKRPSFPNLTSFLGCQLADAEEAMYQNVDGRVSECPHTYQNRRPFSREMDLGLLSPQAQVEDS
Put plainly: FLT3 kinase assay (AlphaScreen). The class given is biochemical. Particulars: read-out: Ranking of IC50 values, FLT3. Here is the method: Inhibition of FLT3 kinase activity by a test compound disclosed herein was estimated by AlphaScreen (PerkinElmer, […]). Standard assay conditions were 1.5 ng of recombinant FLT3 kinase (SignalChem, Richmond, BC, Canada) with 6 ng Biotin-conjugated Poly-(Glu 4: Tyr 1) (Cisbio, Bedford, MA, USA) in the assay buffer (10 μM ATP, 10 mM MOPs, pH7.0, 0.21 mM EDTA, 0.5% glycerol, 1 mg/mL BSA, 0.01% 2-mercaptoethanol, 0.001% Brij35, 10 mM MgCl2) in a final volume of 25 μL. Reactions were incubated at 30° C. for 30 min and stopped by adding 5 μL of 50 mM EDTA. Analysis of resulting product using an AlphaScreen kit and counted with Enspire Alpha (PerkinElmer, Waltham, MA, USA). […] The IC50 values of inhibitors were determined after carrying out assays with each compound at serially diluted concentrations in duplication. The results were analyzed using linear regression software (GraphPad Prism 5; GraphPad Software Inc.)
Background: In Alpha technology, singlet oxygen from a donor bead excites a nearby acceptor bead.

In assay [2] the test system is THP-1 human acute monocytic leukemia cell with NRAS G12D mutation. Put plainly: THP-1 cell proliferation assay (counter screen). The class given is cell-based. Particulars: Homo sapiens, THP-1 cells, 72 hours treatment, CellTiter96, read-out: anti-proliferation activity THP-1 NRAS N12D, IC50 ranking. Here is the method:
as §1
THP-1 cells are human acute monocytic leukemia cells with NRAS G12D mutation, which renders the cell growth independent of class III RTKs signaling. THP-1 cells (catalog #TIB-202) were obtained from the ATCC. Briefly, cells were grown in RPMI 1640 medium supplemented with 10% heat inactivated fetal bovine serum and 0.05 mM 2-mercaptoethanol and incubated at 37° C. in 5% CO2 atmosphere. Cells were allowed to expand until reaching saturation, at which point they were sub-cultured or harvested for assay use.
as §2

A further assay has as its target T2, PDGFRα kinase (Homo sapiens, UniProt P16234).
T2 construct: purchased SignalChem
Put plainly: PDGFRα kinase assay (AlphaScreen). It counts as biochemical. As to conditions: read-out: Ranking of IC50 values, PDGFRα. Here is the method: Inhibition of PDGFRα kinase activity by a test compound disclosed herein was estimated by AlphaScreen (PerkinElmer). Standard assay conditions were 1.5 ng of recombinant PDGFRα kinase (SignalChem) with 6 ng Biotin-conjugated Poly-(Glu 4: Tyr 1) (Cisbio) in the assay buffer (10 μM ATP, 10 mM MOPs, pH 7.0, 0.21 mM EDTA, 0.5% glycerol, 1 mg/mL BSA, 0.01% 2-mercaptoethanol, 0.001% Brij35, 10 mM MgCl2) in a final volume of 25 μL. Reactions were incubated at 30° C. for 30 min and stopped by adding […] of 50 mM EDTA. Analysis of resulting product using an AlphaScreen kit and counted with Enspire Alpha (PerkinElmer). […] The IC50 values of inhibitors were determined after carrying out assays with each compound at serially diluted concentrations in duplication. The results were analyzed using linear regression software (GraphPad Prism 5; GraphPad Software Inc.)

T2 sequence (P16234 24-1089): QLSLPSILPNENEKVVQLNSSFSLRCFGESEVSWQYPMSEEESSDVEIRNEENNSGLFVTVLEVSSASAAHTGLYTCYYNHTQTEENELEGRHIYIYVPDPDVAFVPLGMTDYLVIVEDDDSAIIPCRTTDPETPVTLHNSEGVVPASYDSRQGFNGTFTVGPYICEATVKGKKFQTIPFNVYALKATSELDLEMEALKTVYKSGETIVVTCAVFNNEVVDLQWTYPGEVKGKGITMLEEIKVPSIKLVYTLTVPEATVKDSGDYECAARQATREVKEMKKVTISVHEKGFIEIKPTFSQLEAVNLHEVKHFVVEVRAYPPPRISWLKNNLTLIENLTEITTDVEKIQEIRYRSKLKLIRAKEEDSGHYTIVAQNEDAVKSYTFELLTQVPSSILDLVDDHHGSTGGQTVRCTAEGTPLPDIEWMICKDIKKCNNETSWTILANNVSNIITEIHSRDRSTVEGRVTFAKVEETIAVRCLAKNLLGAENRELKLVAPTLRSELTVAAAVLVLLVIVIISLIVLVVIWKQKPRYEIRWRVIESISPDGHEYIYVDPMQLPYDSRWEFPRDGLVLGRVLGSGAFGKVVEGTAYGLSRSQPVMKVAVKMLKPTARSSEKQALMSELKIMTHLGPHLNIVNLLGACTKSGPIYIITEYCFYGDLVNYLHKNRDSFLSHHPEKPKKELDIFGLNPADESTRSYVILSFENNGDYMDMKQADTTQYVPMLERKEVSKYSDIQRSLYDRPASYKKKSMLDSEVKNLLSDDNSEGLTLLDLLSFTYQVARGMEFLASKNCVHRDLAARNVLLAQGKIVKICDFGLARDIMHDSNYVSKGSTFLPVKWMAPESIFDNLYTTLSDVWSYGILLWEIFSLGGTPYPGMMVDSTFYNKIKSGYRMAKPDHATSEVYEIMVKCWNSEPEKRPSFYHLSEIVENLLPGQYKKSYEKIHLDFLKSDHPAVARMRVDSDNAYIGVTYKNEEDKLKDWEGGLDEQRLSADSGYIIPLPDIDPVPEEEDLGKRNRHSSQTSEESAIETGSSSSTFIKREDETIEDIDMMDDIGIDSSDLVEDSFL

Turning to `CN(C)c1ccc(-c2cc3c(s2)Cc2c(-c4ccc5cnn(C)c5c4)n[nH]c2-3)cn1` [Compound 5, N,N-dimethyl-5-(3-(1-methyl-1H-indazol-6-yl)-1,4-dihydrothieno [2′,3′:4,5]cyclopenta[1,2-c]pyrazol-6-yl)pyridin-2-amine], the IC50 was greater than 10000 nM in assay [1], 1 to 10 nM on FLT3 kinase, greater than 10000 nM in assay [2] and 10 to 30 nM on PDGFRα kinase.
Regarding `c1cc(-c2cc3c(s2)Cc2c(-c4ccc5cn[nH]c5c4)n[nH]c2-3)ccc1CN1CCOCC1` [Compound 6, 4-(4-(3-(1H-indazol-6-yl)-1,4-dihydrothieno[2′,3′:4,5]cyclopenta[1,2-c]pyrazol-6-yl)benzyl)morpholine], the IC50 in assay [1] is greater than 10000 nM; at FLT3 kinase, less than 1 nM; in assay [2], greater than 10000 nM; at PDGFRα kinase, 1 to 10 nM.
As to `C[C@@H]1CN(Cc2ccc(-c3cc4c(s3)Cc3c(-c5ccc6cn[nH]c6c5)n[nH]c3-4)cc2)C[C@H](C)O1` [Compound 7, (2S,6R)-4-(4-(3-(1H-indazol-6-yl)-1,4-dihydrothieno[2′,3′:4,5]cyclopenta [1,2-c]pyrazol-6-yl)benzyl)-2,6-dimethylmorpholine], the IC50 in assay [1] is greater than 10000 nM; at FLT3 kinase, 1 to 10 nM; in assay [2], greater than 10000 nM; at PDGFRα kinase, 1 to 10 nM.
Take `Cn1ncc2ccc(-c3n[nH]c4c3Cc3sc(-c5ccc(CN6CCOCC6)cc5)cc3-4)cc21` [Compound 8, 4-(4-(3-(1-methyl-1H-indazol-6-yl)-1,4-dihydro-thieno[2′,3′:4,5]cyclopenta [1,2-c]pyrazol-6-yl)benzyl) morpholine]: the IC50 was greater than 10000 nM in assay [1], less than 1 nM on FLT3 kinase, greater than 10000 nM in assay [2] and 1 to 10 nM on PDGFRα kinase.
Regarding `C[C@@H]1CN(Cc2ccc(-c3cc4c(s3)Cc3c(-c5ccc6cnn(C)c6c5)n[nH]c3-4)cn2)C[C@H](C)O1` [Compound 9, (2S,6R)-2,6-dimethyl-4-((5-(3-(1-methyl-lH-indazol-6-yl)-1,4-dihydro-thieno[2′,3′:4,5]cyclopenta [1,2-c]pyrazol-6-yl)pyridin-2-yl)methyl) morpholine], the IC50 in assay [1] was greater than 10000 nM; at FLT3 kinase, less than 1 nM; in assay [2], greater than 10000 nM; at PDGFRα kinase, 1 to 10 nM.
For the molecule `Cn1ncc2ccc(-c3n[nH]c4c3Cc3sc(-c5ccc(CN6CCOCC6)nc5)cc3-4)cc21` [Compound 10, 4-((5-(3-(1-methyl-1H-indazol-6-yl)-1,4-dihydro-thieno[2′,3′:4,5]cyclopenta [1,2-c]pyrazol-6-yl)pyridin-2-yl)methyl)morpholine], the IC50 is greater than 10000 nM in assay [1], less than 1 nM on FLT3 kinase, greater than 10000 nM in assay [2] and 1 to 10 nM on PDGFRα kinase.
As for `Cc1ccc(-c2cc3c(s2)Cc2c(-c4ccc5cnn(C)c5c4)n[nH]c2-3)cn1` [Compound 11, 3-(1-methyl-1H-indazol-6-yl)-6-(6-methylpyridin-3-yl)-1,4-dihydrothieno [2′,3′:4,5]cyclopenta[1,2-c] pyrazole], the IC50 in assay [1] was greater than 10000 nM; on FLT3 kinase, 1 to 10 nM; in assay [2] it was greater than 10000 nM; on PDGFRα kinase, 10 to 30 nM.
In the case of `C[C@@H]1CN(Cc2cccc(-c3cc4c(s3)Cc3c(-c5ccc6cnn(C)c6c5)n[nH]c3-4)c2)C[C@H](C)O1` [Compound 12, (2S,6R)-2,6-dimethyl-4-(3-(3-(1-methyl-1H-indazol-6-yl)-1,4-dihydrothieno [2′,3′:4,5]cyclopenta[1,2-c]pyrazol-6-yl)benzyl) morpholine], the IC50 in assay [1] is greater than 10000 nM; at FLT3 kinase, 1 to 10 nM; in assay [2], greater than 10000 nM; on PDGFRα kinase, 30 to 100 nM.
On to `Cn1ncc2ccc(-c3n[nH]c4c3Cc3sc(-c5cccc(CN6CCOCC6)c5)cc3-4)cc21` [Compound 13, 4-(3-(3-(1-methyl-1H-indazol-6-yl)-1,4-dihydro-thieno[2′,3′:4,5]cyclopenta [1,2-c]pyrazol-6-yl)benzyl) morpholine], for which the IC50 in assay [1] was greater than 10000 nM; on FLT3 kinase, 1 to 10 nM; in assay [2] it was greater than 10000 nM; at PDGFRα kinase it was 10 to 30 nM.
Consider `CN1CCN(Cc2cccc(-c3cc4c(s3)Cc3c(-c5ccc6cnn(C)c6c5)n[nH]c3-4)c2)CC1` [Compound 14, 3-(1-methyl-1H-indazol-6-yl)-6-(3-((4-methylpiperazin-1-yl)methyl)phenyl)-1,4-dihydrothieno [2′,3′:4,5]cyclopenta[1,2-c] pyrazole], for which the IC50 in assay [1] was 1000 to 10000 nM; on FLT3 kinase, 1 to 10 nM; in assay [2], greater than 10000 nM; at PDGFRα kinase, 10 to 30 nM.
The matching figures for `CN1CCN(C(=O)c2ccc(-c3cc4c(s3)Cc3c(-c5ccc6cnn(C)c6c5)n[nH]c3-4)cc2)CC1` [Compound 15, (4-(3-(1-methyl-1H-indazol-6-yl)-1,4-dihydrothieno[2′,3′:4,5]cyclopenta[1,2-c]pyrazol-6-yl)phenyl)(4-methyl-piperazin-1-yl)methanone]: greater than 10000 nM, less than 1 nM, greater than 10000 nM and 1 to 10 nM.
As for `Cn1ncc2ccc(-c3n[nH]c4c3Cc3sc(-c5ccc(CN6CCOCC6)cn5)cc3-4)cc21` [Compound 95, 4-((6-(3-(1-methyl-1H-indazol-6-yl)-1,4-dihydro-thieno[2′,3′:4,5]cyclopenta [1,2-c]pyrazol-6-yl)pyridin-3-yl)methyl) morpholine], the IC50 on FLT3 kinase is less than 1 nM; at PDGFRα kinase, 1 to 10 nM.
